Source: publication PMC11055700 (Chemicke Zvesti, 2024)
Read-outs that look alike come from different tables or passages of the source.

Experiments:
[1] = biological target: T1, SARS-CoV-2 Spike-RBD (beta) / ACE2 (Homo sapiens, UniProt Q9BYF1); assay: biochemical; format: binding
T1 construct: a SARS-CoV-2 RBD protein containing a C-terminal His tag; a full-length ACE2 peptide with a C-terminal Fc tag; purchased Sino Biological

[2] = biological target: T2, SARS-CoV-2 Spike-RBD (lambda) / ACE2 (Homo sapiens, UniProt Q9BYF1); assay: biochemical; format: binding
T2 construct: a SARS-CoV-2 RBD protein containing a C-terminal His tag; a full-length ACE2 peptide with a C-terminal Fc tag; purchased Sino Biological

[3] = biological target: T3, SARS-CoV-2 Spike-RBD (delta) / ACE2 (Homo sapiens, UniProt Q9BYF1); assay: biochemical; format: binding
T3 construct: a SARS-CoV-2 RBD protein containing a C-terminal His tag; a full-length ACE2 peptide with a C-terminal Fc tag; purchased Sino Biological

[4] = biological target: T4, SARS-CoV-2 Spike-RBD (omicron) / ACE2 (Homo sapiens, UniProt Q9BYF1); assay: biochemical; format: binding
T4 construct: a SARS-CoV-2 RBD protein containing a C-terminal His tag; a full-length ACE2 peptide with a C-terminal Fc tag; purchased Sino Biological

[5] = biological target: T5, SARS-CoV-2 Spike-RBD (ancestral, WT) / ACE2 (Homo sapiens, UniProt Q9BYF1); assay: biochemical; format: binding; conditions: IC50 Spike/ACE2
T5 construct: a SARS-CoV-2 RBD protein containing a C-terminal His tag; a full-length ACE2 peptide with a C-terminal Fc tag; purchased Sino Biological

human PD-1 / human PD-L1 = biological target: T6, human PD-1 / human PD-L1 (Homo sapiens, UniProt Q15116+Q9NZQ7); assay: AlphaScreen PD-1-PD-L1 binding assay; conditions: unrelated ligand-receptor pair
T6 construct: purchased Sino Biological
T6 sequence (Q15116 25-167 limits assumed): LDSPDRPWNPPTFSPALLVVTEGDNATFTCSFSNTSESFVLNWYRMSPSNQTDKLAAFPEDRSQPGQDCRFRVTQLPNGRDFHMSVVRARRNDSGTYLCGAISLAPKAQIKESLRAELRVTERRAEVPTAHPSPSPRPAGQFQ
T6 sequence (Q9NZQ7 19-239 limits assumed): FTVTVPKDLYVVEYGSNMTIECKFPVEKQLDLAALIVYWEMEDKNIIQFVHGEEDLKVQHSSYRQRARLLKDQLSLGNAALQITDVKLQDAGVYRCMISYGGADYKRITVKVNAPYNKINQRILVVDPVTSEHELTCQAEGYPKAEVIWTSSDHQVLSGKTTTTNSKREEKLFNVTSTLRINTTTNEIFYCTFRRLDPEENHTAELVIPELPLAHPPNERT

T1 sequence (Q9BYF1 18-740): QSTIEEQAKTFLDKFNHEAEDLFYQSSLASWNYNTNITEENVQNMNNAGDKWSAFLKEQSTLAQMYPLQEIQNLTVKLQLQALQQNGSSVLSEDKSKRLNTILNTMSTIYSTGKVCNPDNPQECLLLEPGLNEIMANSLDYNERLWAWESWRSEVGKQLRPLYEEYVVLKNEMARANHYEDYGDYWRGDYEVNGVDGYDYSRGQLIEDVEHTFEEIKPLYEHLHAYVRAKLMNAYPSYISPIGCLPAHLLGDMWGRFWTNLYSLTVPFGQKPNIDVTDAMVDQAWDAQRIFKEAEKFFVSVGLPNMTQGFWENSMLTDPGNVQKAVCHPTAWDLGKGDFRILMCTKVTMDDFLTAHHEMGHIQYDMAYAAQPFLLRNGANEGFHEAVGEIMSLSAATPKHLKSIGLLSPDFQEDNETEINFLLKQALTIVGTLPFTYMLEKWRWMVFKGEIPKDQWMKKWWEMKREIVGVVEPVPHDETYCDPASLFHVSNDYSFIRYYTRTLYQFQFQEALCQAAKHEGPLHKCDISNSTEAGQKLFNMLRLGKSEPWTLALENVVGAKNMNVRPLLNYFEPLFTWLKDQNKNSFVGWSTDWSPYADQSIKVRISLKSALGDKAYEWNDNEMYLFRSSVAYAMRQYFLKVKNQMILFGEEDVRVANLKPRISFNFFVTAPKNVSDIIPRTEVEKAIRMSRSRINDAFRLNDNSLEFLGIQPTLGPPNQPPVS
T2 sequence (Q9BYF1 18-740): as above
T4 sequence (Q9BYF1 18-740, change not shown): as the sequence (Q9BYF1 18-740) above
T3 sequence (Q9BYF1 18-740): as above
T5 sequence (Q9BYF1 18-740): as above

Molecule | fold weaker against the beta RBD [1] | IC50 ([1]; read-out: IC50 spike RBD/ACE2 binding, Beta RBD sequence) | IC50 ([2]; read-out: IC50 spike RBD/ACE2 binding, Lambda RBD sequence) | IC50 ([3]; read-out: IC50 spike RBD/ACE2 binding, Delta RBD sequence) | IC50 ([4]; read-out: IC50 spike RBD/ACE2 binding, Omicron RBD sequence) | IC50 [1] | IC50 [2] | melting point | IC50 [5] | IC50 [3] | IC50 (human PD-1 / human PD-L1) | IC50 [4]
REGN10933 | ~ 70 fold | 90.9 nM | 0.8 nM | 1.4 nM | > 700 nM | – | – | – | – | – | – | –
O=C1Nc2ccc(Cl)cc2C1=NNc1ccc([N+](=O)[O-])cc1[N+](=O)[O-] [H2L, 5-chloro-3-(2-(2,4-dinitrophenyl)hydrazono)indolin-2-one] | – | – | – | – | – | 490 nM | 628 nM | > 350 °C | 260 nM | 464 nM | 2060 nM | 615 nM
